Laboratory results from US8796339B2, “Compositions comprising benzyl alcohol derivatives and further antimicrobial active compounds” (Symrise AG, priority 2008, dated 2014).

Test system: Aspergillus niger ATCC 16404
Assay: Testing for adequate preservation (European Pharmacopoeia 5.1.3 preservative stress test) of inoculated cosmetic emulsions
Format: cell-based
Details: for cfu/ml at 0 days / cfu/ml at 2 days / cfu/ml at 7 days / cfu/ml at 14 days: 4-methylbenzyl alcohol 0.4%; for cfu/ml at 0 days / Aspergillus niger germ count at 0 days (initial, "0 value"): day 0; for cfu/ml at 2 days / Aspergillus niger germ count at 2 days: day 2; for cfu/ml at 7 days / Aspergillus niger germ count at 7 days: day 7; for cfu/ml at 14 days: day 14; for Aspergillus niger germ count at 0 days (initial, "0 value") / Aspergillus niger germ count at 2 days / Aspergillus niger germ count at 7 days: 1.0% product in O/W emulsion pH 5.5, B=1.0% 4-methylbenzyl alcohol
Protocol: Testing for adequate preservation was carried out in accordance with the European Pharmacopoeia. Testing thus comprises contamination of the formulation, if possible in its final condition, with a prescribed inoculum of suitable microorganisms, storage of the inoculated formulation at a certain temperature, removal of samples from the container at certain intervals of time and determination of the number of microorganisms in the samples removed in this way. The preserving properties are adequate if, under the conditions of the test, a clear reduction or, where appropriate, no increase in the germ count results in the inoculated formulations after the prescribed times at the prescribed temperatures. Experimental details of the test procedure are described in the European Pharmacopoeia (ISBN 3-7692-2768-9; Supplement 2001 to the 3rd Edition, page 421-422, chapter 5.1.3). E: Aspergillus niger ATCC 16404 The initial germ count (cfu/ml; “0 value”) was in the range of from 230000 to 400000 in the various test series. For the tests for adequate preservation, a defined amount of the active compound combination according to the invention (product C) was incorporated into an O/W emulsion. For comparison purposes, the comparison products (product A and B) were incorporated into separate O/W emulsions. […] Phenonip® is a commercially available (Clariant, Nipa preservatives) and in cosmetic formulations widely used antimicrobial active mixture consisting of phenoxyethanol, methylparaben, ethylparaben, butylparaben, propylparaben and isobutylparaben. Testing for adequate preservation was carried out in accordance with the European Pharmacopoeia, as explained in Example 1a. The initial germ count (cfu/ml; “0 value”) was in the range of from 200,000 to 400,000 in the various test series.

[1] = Example 3, Table 9, dosage: 1,2-decanediol 1.0%, mixture 0.5% (title; listed as prints 1.5%)+0.2%
[2] = Example 3, Table 8, dosage: 1,2-hexanediol 3.0%, mixture 1.5%+0.2%
[3] = Example 3, Table 7, dosage: 1,2-pentanediol 4.0%, mixture 2.0%+0.2%
[4] = Example 1a, A=0.5% 1,2-hexanediol+0.5% 1,2-octanediol, C=0.4%+0.4%+0.2%
[5] = Example 1b, A=0.25% 1,2-hexanediol+0.75% 1,2-octanediol, C=0.2%+0.6%+0.2%
[6] = Example 2, A=1.0% 1,2-octanediol, C=0.8% 1,2-octanediol+0.2% 4-methylbenzyl alcohol

In the case of `CCCCCCCCC(O)CO` (centres unmarked) [1,2-Decanediol, reference compound], the “cfu/ml at 0 days” value [1] is reported as 250000 cfu/ml, the “cfu/ml at 2 days” value [1] is reported as 208000 cfu/ml and the “cfu/ml at 7 days” value [1] is reported as 302000 cfu/ml.
In the case of `CCCCC(O)CO` (centres unmarked) [1,2-Hexanediol, reference compound], the “cfu/ml at 0 days” value [2] is reported as 250000 cfu/ml, the “cfu/ml at 2 days” value [2] is reported as 212000 cfu/ml and the “cfu/ml at 7 days” value [2] is reported as 132000 cfu/ml.
`CCCC(O)CO` (centres unmarked) [1,2-Pentanediol, reference compound] was tested, and the “cfu/ml at 0 days” value [3] was 250000 cfu/ml, the “cfu/ml at 2 days” value [3] was 246000 cfu/ml and the “cfu/ml at 7 days” value [3] was 265000 cfu/ml. For the same compound, the “cfu/ml at 14 days” value [3] was 246000 cfu/ml.
For `Cc1ccc(CO)cc1` [4-Methylbenzyl alcohol, 4-methylbenzyl alcohol], the “Aspergillus niger germ count at 0 days (initial, "0 value")” value (“Aspergillus niger germ count at 0 days” below) [4] was 320000 cfu/ml, the “Aspergillus niger germ count at 2 days” value [4] was 302000 cfu/ml and the “Aspergillus niger germ count at 7 days” value [4] was 167000 cfu/ml. For the same compound, the “Aspergillus niger germ count at 0 days” value [5] was 320000 cfu/ml, the “Aspergillus niger germ count at 2 days” value [5] was 302000 cfu/ml and the “Aspergillus niger germ count at 7 days” value [5] was 167000 cfu/ml. The “Aspergillus niger germ count at 0 days” value [6] was 320000 cfu/ml, the “Aspergillus niger germ count at 2 days” value [6] was 302000 cfu/ml and the “Aspergillus niger germ count at 7 days” value [6] was 167000 cfu/ml. The “cfu/ml at 0 days” value [3] was 250000 cfu/ml, the “cfu/ml at 2 days” value [3] was 208000 cfu/ml and the “cfu/ml at 7 days” value [3] was 302000 cfu/ml. For the same compound, the “cfu/ml at 14 days” value [3] was 132000 cfu/ml, the “cfu/ml at 0 days” value [2] was 250000 cfu/ml and the “cfu/ml at 2 days” value [2] was 208000 cfu/ml. For the same compound, the “cfu/ml at 7 days” value [2] was 302000 cfu/ml, the “cfu/ml at 0 days” value [1] was 250000 cfu/ml and the “cfu/ml at 2 days” value [1] was 208000 cfu/ml. For the same compound, the “cfu/ml at 7 days” value [1] was 302000 cfu/ml.
